Measured values reported in ChEMBL document CHEMBL1201862, “PubChem BioAssay data set” (2004).
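A five-concentration, 48-hour dose response in 96-well plates underlies each endpoint, interpolated linearly between surrounding concentrations. GI50: concentration for 50% inhibition of growth.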 Calls of active or inactive are those of the source. Cut-off read from the data, not from the text of the source: active = GI50 up to about 1.1 µM and inactive = higher.

Assays:
Test in all cases: inhibition of tumour cell growth, NCI panel, 48 h
[1] = tested on: DMS-273
[2] = tested on: HOP-18
[3] = tested on: DLD-1
[4] = tested on: M19-MEL
[5] = tested on: LXFL 529
[6] = tested on: KM-20L2
[7] = tested on: SNB-78
[8] = tested on: XF498
[9] = tested on: RXF 631

Structure (SMILES) | GI50 [1] | GI50 [2] | GI50 [3] | GI50 [4] | GI50 [5] | GI50 [6] | GI50 [7] | GI50 [8] | GI50 [9]
Oc1cc(-c2ccccc2)c2ccccc2n1 | 60.5 µM (inactive) | 23.6 µM (inactive) | 56 µM (inactive) | 82.6 µM (inactive) | 34.2 µM (inactive) | – | – | – | –
[N-]=[N+]=Nc1ccc(CCN2CCN(c3cccc(C(F)(F)F)c3)CC2)cc1I | 72.6 µM (inactive) | – | – | 83 µM (inactive) | 50 µM (inactive) | 31.3 µM (inactive) | > 100 µM (inactive) | – | –
COC(=O)c1ccccc1OCc1cc(=O)oc2ccc(C)cc12 | 71.3 µM (inactive) | – | 67.1 µM (inactive) | > 100 µM (inactive) | 85.7 µM (inactive) | 82.2 µM (inactive) | – | 31.8 µM (inactive) | > 100 µM (inactive)
COc1ccccc1/C=C1\CCC(CN(C)C)C1=O (stereo not drawn) | 6.9 µM (inactive) | 22.9 µM (inactive) | 2.2 µM (inactive) | 2.78 µM (inactive) | – | 4.24 µM (inactive) | 9.4 µM (inactive) | 18.3 µM (inactive) | –
COc1ccccc1/N=N/C(C(=O)c1ccccc1)C(=O)c1ccccc1 | 16.4 µM (inactive) | – | 17.6 µM (inactive) | 15 µM (inactive) | 15.5 µM (inactive) | 26.3 µM (inactive) | – | 19.5 µM (inactive) | –
Cc1ccc(C)c2sc3cc(=O)ccc-3nc12 | 39.2 µM (inactive) | > 100 µM (inactive) | 45.9 µM (inactive) | 17.3 µM (inactive) | 37.7 µM (inactive) | 73.3 µM (inactive) | > 100 µM (inactive) | – | 92.9 µM (inactive)
CCOC(=O)[C@H](CCCNC(=O)OC(C)(C)C)NCc1ccc(OC)c(OC)c1 | > 100 µM (inactive) | > 100 µM (inactive) | > 100 µM (inactive) | > 100 µM (inactive) | > 100 µM (inactive) | > 100 µM (inactive) | – | > 100 µM (inactive) | > 100 µM (inactive)
CC(=O)O[C@H]1CC[C@@]2(C)C(=C/C(=N\[N+](=O)[O-])[C@H]3C4CCC([C@H](C)CCCC(C)C)[C@@]4(C)CCC32)C1 (stereo partly drawn) | > 100 µM (inactive) | – | > 100 µM (inactive) | > 100 µM (inactive) | > 100 µM (inactive) | > 100 µM (inactive) | – | > 100 µM (inactive) | –
CCOc1ccc(/N=C(/NC(=O)c2ccccc2)SC)cc1 | > 100 µM (inactive) | > 100 µM (inactive) | > 100 µM (inactive) | > 100 µM (inactive) | > 100 µM (inactive) | > 100 µM (inactive) | > 100 µM (inactive) | – | –
N#CC(NNC(=O)Cc1ccccc1)c1ccc(O)cc1 (stereo not drawn) | > 100 µM (inactive) | > 100 µM (inactive) | > 100 µM (inactive) | > 100 µM (inactive) | > 100 µM (inactive) | – | – | – | –
C#CCN(C(=O)C(F)(F)F)c1ccc(C(=O)c2ccc(N(CC#C)C(=O)C(F)(F)F)cc2)cc1 | 24.1 µM (inactive) | – | 37.6 µM (inactive) | 35.5 µM (inactive) | 27.7 µM (inactive) | > 100 µM (inactive) | 52.4 µM (inactive) | – | –
O=[N+]([O-])c1ccc(/C=N/C2CCCCC2)cc1 | > 100 µM (inactive) | > 100 µM (inactive) | > 100 µM (inactive) | > 100 µM (inactive) | – | > 100 µM (inactive) | > 100 µM (inactive) | > 100 µM (inactive) | > 100 µM (inactive)
COc1ccc2c(c1)c1c3n2CCNN=C3CCC1 | > 100 µM (inactive) | > 100 µM (inactive) | > 100 µM (inactive) | > 100 µM (inactive) | > 100 µM (inactive) | > 100 µM (inactive) | > 37.7 µM (inactive) | > 100 µM (inactive) | 68.4 µM (inactive)
O=C(O)c1ccc(S(=O)(=O)c2ccccc2)c([N+](=O)[O-])c1 | 63.8 µM (inactive) | > 100 µM (inactive) | > 100 µM (inactive) | > 100 µM (inactive) | > 100 µM (inactive) | > 100 µM (inactive) | > 100 µM (inactive) | – | –
CCOC(=O)C1=C(Nc2ccc(Br)cc2)OC/C1=N\NC(=O)c1ccccc1O | 4.69 µM (inactive) | 70.5 µM (inactive) | 18 µM (inactive) | 35 µM (inactive) | 14.5 µM (inactive) | > 60 µM (inactive) | 7.93 µM (inactive) | – | –
O=C(NC1C=Nc2ccccc2NC1=O)c1ccccc1Cl (stereo not drawn) | 26.8 µM (inactive) | 48 µM (inactive) | 59.2 µM (inactive) | 57 µM (inactive) | 28.6 µM (inactive) | 55.6 µM (inactive) | 93.1 µM (inactive) | 22.2 µM (inactive) | 22 µM (inactive)
C[Si](C)(C)C(CCCCSc1ccccc1)(Sc1ccccc1)Sc1ccccc1 | > 100 µM (inactive) | – | > 100 µM (inactive) | > 100 µM (inactive) | 78.2 µM (inactive) | > 10 µM (inactive) | > 100 µM (inactive) | > 100 µM (inactive) | > 100 µM (inactive)
Oc1cc(C2OCCCO2)cc(O)c1O | > 100 µM (inactive) | > 100 µM (inactive) | > 100 µM (inactive) | > 100 µM (inactive) | > 100 µM (inactive) | > 100 µM (inactive) | > 100 µM (inactive) | – | > 100 µM (inactive)
CC(=O)NC(CC(C)C)C(=O)NC(Cc1ccccc1)C(=S)N1CCCC1 (stereo not drawn) | > 100 µM (inactive) | – | – | > 100 µM (inactive) | > 100 µM (inactive) | > 100 µM (inactive) | – | > 100 µM (inactive) | > 100 µM (inactive)
COC(=O)C1CCc2c1c(=O)n1c([nH]c3ccccc31)c2C#N (stereo not drawn) | > 100 µM (inactive) | 2.36 µM (inactive) | > 100 µM (inactive) | > 100 µM (inactive) | > 100 µM (inactive) | > 100 µM (inactive) | > 100 µM (inactive) | > 100 µM (inactive) | –
CC(C)(C)c1ccc(OC2CCO2)cc1 (stereo not drawn) | 34.4 µM (inactive) | > 100 µM (inactive) | – | 23.1 µM (inactive) | 54.6 µM (inactive) | 19.5 µM (inactive) | 49.9 µM (inactive) | – | –
COC(=O)C1C=CCC2CCCCC21N1CCCC1 (stereo not drawn) | > 100 µM (inactive) | > 100 µM (inactive) | > 100 µM (inactive) | 59.3 µM (inactive) | 81.5 µM (inactive) | 83.2 µM (inactive) | > 100 µM (inactive) | – | > 100 µM (inactive)
COc1ccc(CCNCCCC2c3ccccc3-c3ccccc32)cc1OC | 7.28 µM (inactive) | 16.8 µM (inactive) | 16.1 µM (inactive) | 11.1 µM (inactive) | 14.1 µM (inactive) | 3.45 µM (inactive) | 15.7 µM (inactive) | 14.7 µM (inactive) | –
CC(C)NC(C)Cc1ccccc1 (stereo not drawn) | > 100 µM (inactive) | > 100 µM (inactive) | > 100 µM (inactive) | > 100 µM (inactive) | > 100 µM (inactive) | > 100 µM (inactive) | > 100 µM (inactive) | – | > 100 µM (inactive)
COC(=O)/C(C)=C(/CCC1(C)OCCO1)O[Si](C)(C)C | > 100 µM (inactive) | > 100 µM (inactive) | > 100 µM (inactive) | > 100 µM (inactive) | > 100 µM (inactive) | > 100 µM (inactive) | > 100 µM (inactive) | > 100 µM (inactive) | –
C[C@H]1C/C=C/[C@H]2[C@@H]3O[C@]3(C)[C@@H](C)[C@H]3[C@H](Cc4ccccc4)NC(=O)[C@]32OC(=O)O/C=C/[C@@](C)(O)C1=O [CYTOCHALASIN E] | 0.091 µM (active) | – | – | 0.0759 µM (active) | – | 0.0248 µM (active) | 0.0189 µM (active) | 0.0183 µM (active) | –
